{"source": "patent US20130317055A1", "about": "“NEURONAL NICOTINIC AGONIST AND METHODS OF USE” (ABBVIE INC., priority 2012, published 2013)", "tested_on": "clinically stable subjects with schizophrenia", "assay": "Clinical Study A (Phase 2a, placebo-controlled): MATRICS Consensus Cognitive Battery (MCCB)", "type": "in vivo, human", "conditions": "for MCCB Reasoning and Problem Solving: Difference from Placebo LS Mean (SE) of Difference / MCCB Reasoning and Problem Solving: LS Mean (SE) of Change from Baseline / MCCB Reasoning and Problem Solving: Observed Mean (SD) of change from baseline / MCCB Attention/Vigilance: Difference from Placebo LS Mean (SE) of Difference / MCCB Attention/Vigilance: LS Mean (SE) of Change from Baseline / MCCB Attention/Vigilance: Observed Mean (SD) of change from baseline / MCCB Social Cognition: Difference from Placebo LS Mean (SE) of Difference / MCCB Social Cognition: LS Mean (SE) of Change from Baseline / MCCB Social Cognition: Observed Mean (SD) of change from baseline / MCCB Speed of Processing: Difference from Placebo LS Mean (SE) of Difference / MCCB Speed of Processing: LS Mean (SE) of Change from Baseline / MCCB Speed of Processing: Observed Mean (SD) of change from baseline / MCCB Verbal Learning: Difference from Placebo LS Mean (SE) of Difference / MCCB Verbal Learning: LS Mean (SE) of Change from Baseline / MCCB Verbal Learning: Observed Mean (SD) of change from baseline / MCCB Visual Learning: Difference from Placebo LS Mean (SE) of Difference / MCCB Visual Learning: LS Mean (SE) of Change from Baseline / MCCB Visual Learning: Observed Mean (SD) of change from baseline / MCCB Working Memory: Difference from Placebo LS Mean (SE) of Difference / MCCB Working Memory: LS Mean (SE) of Change from Baseline / MCCB Working Memory: Observed Mean (SD) of change from baseline: ITT", "source_text": "A Phase 2a proof-of-concept (POC) study in clinically stable subjects with schizophrenia who were clinically stable and received stable doses of atypical antipsychotic therapy. The study was a Phase 2, multi-center, randomized, double-blind, placebo-controlled, parallel group study designed to evaluate the safety and efficacy of doses of (4s)-4-(5-phenyl-1,3,4-thiadiazol-2-yloxy)-1-azatricyclo[3.3.1.1^3,7]decane (Compound A) in clinically stable male and female subjects (ages 20 to 55, inclusive) with a Diagnostic and Statistical Manual of Mental Disorders Fourth Edition, Text Revision (DSM-IV-TR) diagnosis of schizophrenia. Psychiatric diagnoses were confirmed using the Mini-International Neuropsychiatric Interview (MINI) version 6.0.0. The criteria for clinical stability was determined by a combination of retrospective data (over the 4 months prior to the start of Screening, which will be supported by clinical records, patient, identified responsible contact person, and physician interviews), and prospective data assessed during the Prospective Stabilization Period of 28 to 42 days duration.\nThe study was a Phase 2, multi-center, randomized, double-blind, placebo-controlled, parallel group study designed to evaluate the safety and efficacy of doses of (4s)-4-(5-phenyl-1,3,4-thiadiazol-2-yloxy)-1-azatrieyclo[3.3.1.1^3,7]decane, which is also recognized as Compound A, in treating cognitive deficits in subjects with schizophrenia who were clinically stable and receiving one or two atypical antipsychotic medications. Study drug was administered orally.\nThe study consisted of a screening period of at least 28 and up to 42 days, a 84-day outpatient treatment period, a 14-day post-treatment period, and a post-treatment follow-up period. The screening period consisted of three visits: Screening Visit 1, Screening Visit 2, and Day −1. Upon completion of Day −1 procedures, eligible subjects were randomized through an Interactive Voice Response/Interactive Web-Based (IVR/IWB) system. Subjects were randomized in an equal ratio to one of three treatment groups (placebo, 10 mg Compound A, or 25 mg Compound A).\nSubjects were randomized in a 1:1:1 ratio with placebo, 10 mg QD Compound A, of 25 mg Compound A. Each subject was instructed to take study drug once-daily in the morning for 12 weeks. Each daily dose was preferably taken with food. The subject and investigator were blinded to the treatment assignment throughout the study. The treatment assignments for the study subjects are shown below in Table 1.\nThe primary endpoint was the MCCB composite score, and the primary endpoint analysis was the change on the MCCB composite score from baseline to endpoint versus placebo. Other secondary measures included the MCCB domains, the NSA-16, the CANTAB cognition battery (measured at different time points from the MCCB), and the UPSA-2. The Positive and Negative Syndrome Scale (PANSS) was included to document stability in schizophrenia symptomatology.\nThe MCCB was developed by a consortium of academic, industry, the Food and Drug Administration (FDA) and National Institute of Mental Health ([…]) members called Measurement and Treatment Research to Improve Cognition in Schizophrenia (MATRICS). The battery was established in a multiple phase process that involved experts identifying cognitive tests in the literature that had shown deficits in schizophrenia, use of factor analysis to identify key domains of cognitive deficits in schizophrenia, and then empirically identifying the best tests for each domain based on reliability, validity and feasibility for use in clinical trials. The FDA has endorsed the MCCB as an appropriate outcome measure for Phase 3 CDS trials. […]", "data": [{"smiles": "c1ccc(-c2nnc(O[C@@H]3C4CC5C[C@H]3C[N@](C5)C4)s2)cc1", "note": "[Compound A, (4s)-4-(5-phenyl-1,3,4-thiadiazol-2-yloxy)-1-azatricyclo[3.3.1.1^3,7]decane]", "values": [{"measurement": "MCCB Reasoning and Problem Solving: Difference from Placebo LS Mean (SE) of Difference", "setting": "10 mg QD, Change to Week 2", "result": "1.24 (1.18) T-score"}, {"measurement": "MCCB Reasoning and Problem Solving: LS Mean (SE) of Change from Baseline", "setting": "10 mg QD, Change to Week 2", "result": "1.99 (0.84) T-score"}, {"measurement": "MCCB Reasoning and Problem Solving: Observed Mean (SD) of change from baseline", "setting": "10 mg QD, Change to Week 2", "result": "1.70 (6.03) T-score"}, {"measurement": "MCCB Attention/Vigilance: Difference from Placebo LS Mean (SE) of Difference", "setting": "10 mg QD, Change to Week 6", "result": "1.29 (1.35) T-score"}, {"measurement": "MCCB Attention/Vigilance: LS Mean (SE) of Change from Baseline", "setting": "10 mg QD, Change to Week 6", "result": "0.49 (0.98) T-score"}, {"measurement": "MCCB Attention/Vigilance: Observed Mean (SD) of change from baseline", "setting": "10 mg QD, Change to Week 6", "result": "0.83 (7.62) T-score"}, {"measurement": "MCCB Reasoning and Problem Solving: Difference from Placebo LS Mean (SE) of Difference", "setting": "10 mg QD, Change to Week 6", "result": "0.53 (1.03) T-score"}, {"measurement": "MCCB Reasoning and Problem Solving: LS Mean (SE) of Change from Baseline", "setting": "10 mg QD, Change to Week 6", "result": "0.49 (0.75) T-score"}, {"measurement": "MCCB Reasoning and Problem Solving: Observed Mean (SD) of change from baseline", "setting": "10 mg QD, Change to Week 6", "result": "0.08 (5.57) T-score"}, {"measurement": "MCCB Social Cognition: Difference from Placebo LS Mean (SE) of Difference", "setting": "10 mg QD, Change to Week 6", "result": "−0.46 (1.34) T-score"}, {"measurement": "MCCB Social Cognition: LS Mean (SE) of Change from Baseline", "setting": "10 mg QD, Change to Week 6", "result": "1.04 (0.97) T-score"}, {"measurement": "MCCB Social Cognition: Observed Mean (SD) of change from baseline", "setting": "10 mg QD, Change to Week 6", "result": "1.14 (7.87) T-score"}, {"measurement": "MCCB Speed of Processing: Difference from Placebo LS Mean (SE) of Difference", "setting": "10 mg QD, Change to Week 6", "result": "0.74 (1.04) T-score"}, {"measurement": "MCCB Speed of Processing: LS Mean (SE) of Change from Baseline", "setting": "10 mg QD, Change to Week 6", "result": "1.13 (0.74) T-score"}, {"measurement": "MCCB Speed of Processing: Observed Mean (SD) of change from baseline", "setting": "10 mg QD, Change to Week 6", "result": "1.00 (5.49) T-score"}, {"measurement": "MCCB Verbal Learning: Difference from Placebo LS Mean (SE) of Difference", "setting": "10 mg QD, Change to Week 6", "result": "0.24 (1.12) T-score"}, {"measurement": "MCCB Verbal Learning: LS Mean (SE) of Change from Baseline", "setting": "10 mg QD, Change to Week 6", "result": "0.31 (0.82) T-score"}, {"measurement": "MCCB Verbal Learning: Observed Mean (SD) of change from baseline", "setting": "10 mg QD, Change to Week 6", "result": "0.68 (7.99) T-score"}, {"measurement": "MCCB Visual Learning: Difference from Placebo LS Mean (SE) of Difference", "setting": "10 mg QD, Change to Week 6", "result": "1.74 (1.57) T-score"}, {"measurement": "MCCB Visual Learning: LS Mean (SE) of Change from Baseline", "setting": "10 mg QD, Change to Week 6", "result": "1.59 (1.13) T-score"}, {"measurement": "MCCB Visual Learning: Observed Mean (SD) of change from baseline", "setting": "10 mg QD, Change to Week 6", "result": "1.35 (9.36) T-score"}, {"measurement": "MCCB Working Memory: Difference from Placebo LS Mean (SE) of Difference", "setting": "10 mg QD, Change to Week 6", "result": "0.86 (1.03) T-score"}, {"measurement": "MCCB Working Memory: LS Mean (SE) of Change from Baseline", "setting": "10 mg QD, Change to Week 6", "result": "0.35 (0.75) T-score"}, {"measurement": "MCCB Working Memory: Observed Mean (SD) of change from baseline", "setting": "10 mg QD, Change to Week 6", "result": "0.27 (5.15) T-score"}, {"measurement": "MCCB Attention/Vigilance: Difference from Placebo LS Mean (SE) of Difference", "setting": "10 mg QD, Change to Week 12", "result": "2.63 (1.49) T-score"}, {"measurement": "MCCB Attention/Vigilance: LS Mean (SE) of Change from Baseline", "setting": "10 mg QD, Change to Week 12", "result": "0.64 (1.06) T-score"}, {"measurement": "MCCB Attention/Vigilance: Observed Mean (SD) of change from baseline", "setting": "10 mg QD, Change to Week 12", "result": "1.15 (8.46) T-score"}, {"measurement": "MCCB Social Cognition: Difference from Placebo LS Mean (SE) of Difference", "setting": "10 mg QD, Change to Week 12", "result": "0.40 (1.52) T-score"}, {"measurement": "MCCB Social Cognition: LS Mean (SE) of Change from Baseline", "setting": "10 mg QD, Change to Week 12", "result": "0.99 (1.08) T-score"}, {"measurement": "MCCB Social Cognition: Observed Mean (SD) of change from baseline", "setting": "10 mg QD, Change to Week 12", "result": "1.38 (6.51) T-score"}, {"measurement": "MCCB Speed of Processing: Difference from Placebo LS Mean (SE) of Difference", "setting": "10 mg QD, Change to Week 12", "result": "1.08 (1.20) T-score"}, {"measurement": "MCCB Speed of Processing: LS Mean (SE) of Change from Baseline", "setting": "10 mg QD, Change to Week 12", "result": "2.36 (0.85) T-score"}, {"measurement": "MCCB Speed of Processing: Observed Mean (SD) of change from baseline", "setting": "10 mg QD, Change to Week 12", "result": "2.33 (6.05) T-score"}, {"measurement": "MCCB Verbal Learning: Difference from Placebo LS Mean (SE) of Difference", "setting": "10 mg QD, Change to Week 12", "result": "0.61 (1.10) T-score"}, {"measurement": "MCCB Verbal Learning: LS Mean (SE) of Change from Baseline", "setting": "10 mg QD, Change to Week 12", "result": "1.08 (0.79) T-score"}, {"measurement": "MCCB Verbal Learning: Observed Mean (SD) of change from baseline", "setting": "10 mg QD, Change to Week 12", "result": "1.28 (7.06) T-score"}, {"measurement": "MCCB Visual Learning: Difference from Placebo LS Mean (SE) of Difference", "setting": "10 mg QD, Change to Week 12", "result": "0.73 (1.59) T-score"}, {"measurement": "MCCB Visual Learning: LS Mean (SE) of Change from Baseline", "setting": "10 mg QD, Change to Week 12", "result": "0.29 (1.12) T-score"}, {"measurement": "MCCB Visual Learning: Observed Mean (SD) of change from baseline", "setting": "10 mg QD, Change to Week 12", "result": "0.05 (8.06) T-score"}, {"measurement": "MCCB Working Memory: Difference from Placebo LS Mean (SE) of Difference", "setting": "10 mg QD, Change to Week 12", "result": "0.80 (1.18) T-score"}, {"measurement": "MCCB Working Memory: LS Mean (SE) of Change from Baseline", "setting": "10 mg QD, Change to Week 12", "result": "0.92 (0.84) T-score"}, {"measurement": "MCCB Working Memory: Observed Mean (SD) of change from baseline", "setting": "10 mg QD, Change to Week 12", "result": "0.83 (7.04) T-score"}, {"measurement": "MCCB domains with dose response relationship", "setting": "10 mg and 25 mg, exception reasoning", "result": "6 of the 7 domains"}, {"measurement": "MCCB composite score: LS mean change from baseline", "setting": "10 mg, baseline to Week 6, MNIRIVI analysis, placebo LS mean +0.49", "result": "+1.25"}, {"measurement": "MCCB Reasoning and Problem Solving: Difference from Placebo LS Mean (SE) of Difference", "setting": "25 mg QD, Change to Week 2", "result": "1.20 (1.24) T-score"}]}]}
